# From patent US20180334447A1, “2,3,4,5-TETRAHYDROPYRIDIN-6-AMINE DERIVATIVES” (JANSSEN PHARMACEUTICA NV, priority 2015, published 2018)
# Key:
# [1] = test system: Abeta 1-37, Abeta 1-38, Abeta 1-40 and Abeta 1-42 in CSF; assay: Pharmacology in the Beagle dog: beta-amyloid profile in cerebrospinal fluid (CSF) after a single dose; format: in vivo; conditions: Canis lupus familiaris, single dose 0.31 mg/kg, 8 h post dosing, read-out: % Decrease in Abeta 1-42 at 8 h post dosing compared to own baseline
# Protocol: Test compounds were tested to evaluate the effect on the beta-amyloid profile in cerebrospinal fluid (CSF) of dogs after a single dose, in combination with pharmacokinetic (PK) follow up and limited safety evaluation.
# For each of compound 20, 21, 22 or 41, four beagle dogs (2 males, 2 females) were dosed with vehicle (1 ml/kg of an aqueous solution of 20% cyclodextrin) and 12 beagle dogs (2 males and 2 females per dosage group) were dosed with test compounds as follows:
# In the case of compounds 39, 33 and 31, two beagle dogs (1 male, 1 female) were dosed with vehicle (1 ml/kg of an aqueous solution of 20% cyclodextrin) and 4 beagle dogs (2 males and 2 females) were dosed with test compound […] (0.31 mg/kg in 0.31 mg/ml of an aqueous 20% cyclodextrin solution) on an empty stomach.
# Eight hours after dosing the animals got access to their regular meal for 30 minutes. Blood was taken for PK follow up (0.5, 1, 2, 4, 8, 25 and 49 hours) and serum samples for biochemistry were taken before and at 8 and 25 h after dosing. The CSF samples were used for measurement of Abeta 1-37, Abeta 1-38, Abeta 1-40 and Abeta 1-42.
# [2] = test system: Abeta 1-42 produced and secreted into the medium of human neuroblastoma SKNBE2 cells; assay: Cellular αLisa assay in SKNBE2 cells, Abeta 42; format: cell-based; conditions: Homo sapiens, SKNBE2, 18 h, SKNBE2 cells expressing hAPP695, incubated for 18 hours; read-out: Cellular αLisa assay in SKNBE2 cells Abeta 42 pIC50 (converted)
# Protocol: In two αLisa assays the levels of Abeta 1-42 produced and secreted into the medium of human neuroblastoma SKNBE2 cells are quantified. The assay is based on the human neuroblastoma SKNBE2 expressing the wild type Amyloid Precursor Protein (hAPP695). The compounds are diluted and added to these cells, incubated for 18 hours and then measurements of Abeta 1-42 are taken. Abeta 1-42 are measured by sandwich αLisa. αLisa is a sandwich assay using biotinylated antibody AbN/25 attached to streptavidin coated beads and antibody cAb42/26 conjugated acceptor beads for the detection of Abeta 1-42 respectively. In the presence of Abeta 1-42, the beads come into close proximity. The excitation of the donor beads provokes the release of singlet oxygen molecules that trigger a cascade of energy transfer in the acceptor beads, resulting in light emission. Light emission is measured after 1 hour incubation (excitation at […] and emission at 615 nm).
# (§1) A best-fit curve is fitted by a minimum sum of squares method to the plot of % Controlmin versus compound concentration. From this an IC50 value (inhibitory concentration causing 50% inhibition of activity) can be obtained.
# [3] = target: T1, recombinant BACE1 protein (Homo sapiens, UniProt P56817); assay: BACE1 biochemical FRET based assay - Method 1; conditions: BACE1, 120 minutes at room temperature, pH 5.0; read-out: Biochemical FRET based assay - Method 1 pIC50 (converted)
# T1 construct: recombinant BACE1 protein in a final concentration of 1 μg/ml
# T1 sequence (P56817 46-501): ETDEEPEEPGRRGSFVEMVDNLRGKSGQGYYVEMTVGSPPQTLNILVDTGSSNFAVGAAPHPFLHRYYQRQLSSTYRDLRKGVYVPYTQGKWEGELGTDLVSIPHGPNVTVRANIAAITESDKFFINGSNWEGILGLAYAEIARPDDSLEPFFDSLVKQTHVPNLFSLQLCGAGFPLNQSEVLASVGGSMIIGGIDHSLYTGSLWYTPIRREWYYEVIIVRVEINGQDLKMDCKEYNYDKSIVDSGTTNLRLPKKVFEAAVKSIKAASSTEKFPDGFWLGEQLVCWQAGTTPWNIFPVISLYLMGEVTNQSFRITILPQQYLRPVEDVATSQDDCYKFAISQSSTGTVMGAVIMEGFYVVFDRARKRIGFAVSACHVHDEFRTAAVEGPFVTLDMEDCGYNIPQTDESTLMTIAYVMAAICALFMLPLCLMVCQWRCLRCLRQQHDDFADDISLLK
# Text: (§2) This assay is a Fluorescence Resonance Energy Transfer Assay (FRET) based assay. The substrate for this assay is an APP derived 13 amino acids peptide that contains the ‘Swedish’ Lys-Met/Asn-Leu mutation of the amyloid precursor protein (APP) beta-secretase cleavage site. This substrate also contains two fluorophores: (7-methoxycoumarin-4-yl) acetic acid (Mca) is a fluorescent donor with excitation wavelength at 320 nm and emission at 405 nm and 2,4-Dinitrophenyl (Dnp) is a proprietary quencher acceptor. […] Upon cleavage by BACE1, the fluorophore Mca is separated from the quenching group Dnp, restoring the full fluorescence yield of the donor. The increase in fluorescence is linearly related to the rate of proteolysis.
# Briefly in a 384-well format recombinant BACE1 protein in a final concentration of 1 μg/ml is incubated for 120 minutes at room temperature with 10 μm substrate in incubation buffer (40 mM Citrate buffer pH 5.0, 0.04% PEG, 4% DMSO) in the absence or presence of compound. Next the amount of proteolysis is directly measured by fluorescence measurement at T=0 and T=120 (excitation at 320 nm and emission at 405 nm). Results are expressed in RFU (Relative Fluorescence Units), as difference between T120 and T0.
# as §1
# [4] = target: T2, recombinant BACE2 protein (Homo sapiens, UniProt Q9Y5Z0); assay: BACE2 biochemical FRET based assay; conditions: BACE2, 450 minutes at room temperature, pH 5.0; read-out: Biochemical FRET based assay pIC50 (converted)
# T2 construct: recombinant BACE2 protein in a final concentration of 0.4 μg/ml
# T2 sequence (Q9Y5Z0 63-518): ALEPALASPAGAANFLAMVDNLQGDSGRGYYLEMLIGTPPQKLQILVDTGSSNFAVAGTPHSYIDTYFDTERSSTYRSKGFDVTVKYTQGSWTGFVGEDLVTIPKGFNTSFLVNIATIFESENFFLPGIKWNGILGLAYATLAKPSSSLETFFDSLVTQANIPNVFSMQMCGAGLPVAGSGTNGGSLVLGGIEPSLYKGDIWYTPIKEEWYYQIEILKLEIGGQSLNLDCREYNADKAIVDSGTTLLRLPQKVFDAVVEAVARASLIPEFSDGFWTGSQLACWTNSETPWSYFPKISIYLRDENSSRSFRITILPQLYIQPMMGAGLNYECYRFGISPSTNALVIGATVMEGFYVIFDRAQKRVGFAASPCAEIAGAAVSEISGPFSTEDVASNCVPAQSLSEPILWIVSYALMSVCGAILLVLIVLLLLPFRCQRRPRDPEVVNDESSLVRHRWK
# Text: as §2, with “assay” for “assay is an APP derived 13 amino acids peptide that”, “the beta-secretase,” for “BACE1,”
# Briefly in a 384-well format recombinant BACE2 protein in a final concentration of 0.4 μg/ml is incubated for 450 minutes at room temperature with 10 μM substrate in incubation buffer (50 mM Citrate buffer pH 5.0, 0.05% PEG, no DMSO) in the absence or presence of compound. Next the amount of proteolysis is directly measured by fluorescence measurement at T=0 and T=450 (excitation at 320 nm and emission at 405 nm). Results are expressed in RFU (Relative Fluorescence Units), as difference between T450 and T0.
# as §1
structure (smiles),measurement,setting,value
COc1cnc(C(=O)Nc2ccc(F)c([C@]3(CF)CC[C@@](C)(S(C)(=O)=O)C(N)=N3)c2)cn1 [Compound 2],inhibition in vivo at 0.31 mg/kg,[1],56%
same,IC50,[2],1.48 nM
same,melting point,,122.96 °C
same,IC50,[3],2.29 nM
same,IC50,[4],13.8 nM
COc1cnc(C(=O)Nc2ccc(F)c([C@]3(C)CC[C@](C)(S(C)(=O)=O)C(N)=N3)c2)cn1 [Compound 9],IC50,[2],28.8 nM
same,melting point,,214.97 °C
same,IC50,[3],77.6 nM
same,IC50,[4],513 nM
